Laboratory results: EP3057951B1, “METHYLENE LINKED QUINOLINYL MODULATORS OF ROR-GAMMA-T” (Janssen Pharmaceutica NV, priority 2013, dated 2015)

Assays:
[1] = target: T1, wild type human RORγt ligand binding domain (RORyt LBD) (Homo sapiens, UniProt P51449); assay: RORγt ThermoFluor assay (thermal shift, binding affinity KD)
T1 construct: His-tag (N); TurboTEV protease cleavage site (ENLYFQG) (N); made in house; host or cells: E. coli (pHIS1, modified pET vector)
T1 sequence (P51449 258-518): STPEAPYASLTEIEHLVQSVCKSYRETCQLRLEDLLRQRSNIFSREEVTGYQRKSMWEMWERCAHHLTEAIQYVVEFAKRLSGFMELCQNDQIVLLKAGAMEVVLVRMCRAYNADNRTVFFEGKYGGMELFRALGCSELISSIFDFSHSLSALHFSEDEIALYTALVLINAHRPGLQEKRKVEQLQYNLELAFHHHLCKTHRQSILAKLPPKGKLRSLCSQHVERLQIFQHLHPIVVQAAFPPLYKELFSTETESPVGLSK

[2] = target: T2, wild type human RORγt LBD (Homo sapiens, UniProt P51449); assay: RORγt (LBD) Reporter Assay (GAL4-luciferase, HEK293T cells); type: cell-based; settings: for RORγt (LBD) Reporter Assay, % inhibition @ 6 µM: 6 µM compound concentration; for IC50: HEK293T cells, value after the comma with ∼, > or < could not be included in the average; for inhibition at 6 µM: HEK-293T, read-out: RORγt (LBD) Reporter Assay, % inhibition @ 6 µM, 6 µM compound concentration
T2 construct: expressed in transfected cells; host or cells: HEK293T
T2 sequence (P51449 258-518): T1 sequence (P51449 258-518)

Kd [1] [nM]	RORγt (LBD) Reporter Assay, % inhibition @ 6 µM ([2]; 6 µM) [%]	IC50 [2] [nM]	inhibition at 6 µM [2] [%]	RORγt (LBD) Reporter Assay, % inhibition @ 6 µM [2] [%]	SMILES
200	4	> 6000			COc1nc2ccc(C(O)(c3ccc(F)cc3)C3CCN(C(C)=O)CC3)cc2c(Cl)c1Cc1ccc(F)cc1 (single isomer, unassigned) [Example 51c, 1-(4-((4-Chloro-3-(4-fluorobenzyl)-2-methoxyquinolin-6-yl)(4-fluorophenyl)(hydroxy)methyl)piperidin-1-yl)ethanone]
1.2	32	> 6000			Cn1cncc1C(O)(c1ccc(C(F)(F)F)nc1)c1ccc2nc(C#N)c(Cc3ccc(F)cc3)c(C#N)c2c1 (single isomer, unassigned) [Example 53b, 3-(4-Fluorobenzyl)-6-(hydroxy(1-methyl-1H-imidazol-5-yl)(6-(trifluoromethyl)pyridin-3-yl)methyl)quinoline-2,4-dicarbonitrile]
48	74	680			Cn1cncc1C(O)(c1ccc(C(F)(F)F)nc1)c1ccc2nc(C#N)c(Cc3ccc(F)cc3)c(C#N)c2c1 (single isomer, unassigned) [Example 53c, 3-(4-Fluorobenzyl)-6-(hydroxy(1-methyl-1H-imidazol-5-yl)(6-(trifluoromethyl)pyridin-3-yl)methyl)quinoline-2,4-dicarbonitrile]
530		500	96		COc1nc2ccc(C(O)(c3ccc(Cl)cc3)c3cncn3C)cc2c(C#N)c1Cc1ccc(C(F)(F)F)cc1 (single isomer, unassigned) [Example 55b, 6-((4-Chlorophenyl)(hydroxy)(1-methyl-1H-imidazol-5-yl)methyl)-2-methoxy-3-(4-(trifluoromethyl)benzyl)quinoline-4-carbonitrile]
4.5	100	93			COc1nc2ccc(C(O)(c3ccc(Cl)cc3)c3cncn3C)cc2c(C#N)c1Cc1ccc(C(F)(F)F)cc1 (single isomer, unassigned) [Example 55c, 6-((4-Chlorophenyl)(hydroxy)(1-methyl-1H-imidazol-5-yl)methyl)-2-methoxy-3-(4-(trifluoromethyl)benzyl)quinoline-4-carbonitrile]
1.1		3.1	82		COc1nc2ccc(C(O)(c3cnnn3C)c3cnc(C)n3C)cc2c(C#N)c1Cc1ccc(F)cc1 (single isomer, unassigned) [Example 66b, 6-((1,2-Dimethyl-1H-imidazol-5-yl)(hydroxy)(1-methyl-1H-1,2,3-triazol-5-yl)methyl)-3-(4-fluorobenzyl)-2-methoxyquinoline4-carbonitrile]
2.2	90	2.6			COc1nc2ccc(C(O)(c3cnnn3C)c3cnc(C)n3C)cc2c(C#N)c1Cc1ccc(F)cc1 (single isomer, unassigned) [Example 66c, 6-((1,2-Dimethyl-1H-imidazol-5-yl)(hydroxy)(1-methyl-1H-1,2,3-triazol-5-yl)methyl)-3-(4-fluorobenzyl)-2-methoxyquinoline4-carbonitrile]
1.8		36	100		COc1nc2ccc(C(O)(c3ccccc3)C3CCN(C(C)=O)CC3)cc2c(Cl)c1Cc1ccc(C(F)(F)F)cc1 (single isomer, unassigned) [Example 69b, 1-(4-((4-Chloro-2-methoxy-3-(4-(trifluoromethyl)benzyl)quinolin-6-yl)(hydroxy)(phenyl)methyl)piperidin-1-yl)ethanone]
35	99	69			COc1nc2ccc(C(O)(c3ccccc3)C3CCN(C(C)=O)CC3)cc2c(Cl)c1Cc1ccc(C(F)(F)F)cc1 (single isomer, unassigned) [Example 69c, 1-(4-((4-Chloro-2-methoxy-3-(4-(trifluoromethyl)benzyl)quinolin-6-yl)(hydroxy)(phenyl)methyl)piperidin-1-yl)ethanone]
32		230	96		COc1nc2ccc(C(N)(c3ccc(C(F)(F)F)nc3)c3cncn3C)cc2c(Cl)c1Cc1cc2ccccc2s1 (single isomer, unassigned) [Example 71b, (3-(Benzo[b]thiophen-2-ylmethyl)-4-chloro-2-methoxyquinolin-6-yl)(1-methyl-1H-imidazol-5-yl)(6-(trifluoromethyl)pyridin-3-yl)methanamine]
270	94	830			COc1nc2ccc(C(N)(c3ccc(C(F)(F)F)nc3)c3cncn3C)cc2c(Cl)c1Cc1cc2ccccc2s1 (single isomer, unassigned) [Example 71c, (3-(Benzo[b]thiophen-2-ylmethyl)-4-chloro-2-methoxyquinolin-6-yl)(1-methyl-1H-imidazol-5-yl)(6-(trifluoromethyl)pyridin-3-yl)methanamine]
44		700	35		CC(=O)N1CCC(C(O)(c2ccccc2)c2ccc3nc(Cl)c(Cc4cncnc4)c(OC(F)F)c3c2)CC1 (single isomer, unassigned) [Example 73b, 1-(4-((2-Chloro-4-(difluoromethoxy)-3-(pyrimidin-5-ylmethyl)quinolin-6-yl)(hydroxy)(phenyl)methyl)piperidin-1-yl)ethanone]
480	21	> 6000			CC(=O)N1CCC(C(O)(c2ccccc2)c2ccc3nc(Cl)c(Cc4cncnc4)c(OC(F)F)c3c2)CC1 (single isomer, unassigned) [Example 73c, 1-(4-((2-Chloro-4-(difluoromethoxy)-3-(pyrimidin-5-ylmethyl)quinolin-6-yl)(hydroxy)(phenyl)methyl)piperidin-1-yl)ethanone]
5		15	102		COc1nc2ccc(C(O)(c3cnnn3C)C3CCN(C(C)=O)CC3)cc2c(Cl)c1Cc1ccc(C(F)(F)F)cc1 (single isomer, unassigned) [Example 74b, 1-(4-((4-Chloro-2-methoxy-3-(4-(trifluoromethyl)benzyl)quinolin-6-yl)(hydroxy)(1-methyl-1H-1,2,3-triazol-5-yl)methyl)piperidin-1-yl)ethanone]
7.7	101	20			COc1nc2ccc(C(O)(c3cnnn3C)C3CCN(C(C)=O)CC3)cc2c(Cl)c1Cc1ccc(C(F)(F)F)cc1 (single isomer, unassigned) [Example 74c, 1-(4-((4-Chloro-2-methoxy-3-(4-(trifluoromethyl)benzyl)quinolin-6-yl)(hydroxy)(1-methyl-1H-1,2,3-triazol-5-yl)methyl)piperidin-1-yl)ethanone]
580		760	92		CC(=O)N1CCC(C(O)(c2ccc(C(F)(F)F)nc2)c2cc(C)c3nc(C#N)c(Cc4ccc(-n5cccn5)cc4)c(C#N)c3c2)CC1 (single isomer, unassigned) [Example 79b, 3-(4-(1H-Pyrazol-1-yl)benzyl)-6-((1-acetylpiperidin-4-yl)(hydroxy)(6(trifluoromethyl)pyridin-3-yl)methyl)-8-methylquinoline-2,4-dicarbonitrile]
45	103	230			CC(=O)N1CCC(C(O)(c2ccc(C(F)(F)F)nc2)c2cc(C)c3nc(C#N)c(Cc4ccc(-n5cccn5)cc4)c(C#N)c3c2)CC1 (single isomer, unassigned) [Example 79c, 3-(4-(1H-Pyrazol-1-yl)benzyl)-6-((1-acetylpiperidin-4-yl)(hydroxy)(6(trifluoromethyl)pyridin-3-yl)methyl)-8-methylquinoline-2,4-dicarbonitrile]
36		310	97		CC(=O)N1CCC(C(O)(c2cc(C)c3nc(C#N)c(Cc4ccc(-n5cccn5)cc4)c(C#N)c3c2)c2cncn2C)CC1 (single isomer, unassigned) [Example 81b, 3-(4-(1H-Pyrazol-1-yl)benzyl)-6-((1-acetylpiperidin-4-yl)(hydroxy)(1-methyl-1H-imidazol-5-yl)methyl)-8-methylquinoline-2,4-dicarbonitrile]
49		560		97	CC(=O)N1CCC(C(O)(c2cc(C)c3nc(C#N)c(Cc4ccc(-n5cccn5)cc4)c(C#N)c3c2)c2cncn2C)CC1 (single isomer, unassigned) [Example 81c, 3-(4-(1H-Pyrazol-1-yl)benzyl)-6-((1-acetylpiperidin-4-yl)(hydroxy)(1-methyl-1H-imidazol-5-yl)methyl)-8-methylquinoline-2,4-dicarbonitrile]
0.67		13	104		Cc1cc(C(O)(c2ccnc(C(F)(F)F)c2)c2cncn2C)cc2c(C#N)c(Cc3ccc(-n4cccn4)cc3)c(C#N)nc12 (single isomer, unassigned) [Example 83b, 3-(4-(1H-Pyrazol-1-yl)benzyl)-6-(hydroxy(1-methyl-1H-imidazol-5-yl)(2-(trifluoromethyl)pyridin-4-yl)methyl)-8-methylquinoline-2,4-dicarbonitrile]
